Measurements reported in the supplement of paper PMC10307832.

Assays:
Assay in all cases: relative viability (nuclei count vs DMSO), 5 days (fraction); higher = more cells survive
[1] = compound: OCc1c[nH]c2ccccc12 [Indole-3-carbinol] + CC(=O)c1c(C)c2cnc(Nc3ccc(N4CCNCC4)cn3)nc2n(C2CCCC2)c1=O [Palbociclib] (partner 0.5 µM)
How it was run: (§1)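 Lung cancer cell lines were pin-tool dosed in 1536-well plates on the day after seeding, with either a lone drug or a fixed anchor-drug dose plus five library-drug doses (not always all listed) in √10 steps. Nuclei were counted on 4× images after 5 days. Relative viability is the ratio of treated-well to vehicle-well nuclei counts, with each value a median of duplicate plates.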

[2] = compound: OCc1c[nH]c2ccccc12 [Indole-3-carbinol] + CC(C)C[C@H](NC(=O)[C@H](Cc1ccccc1)NC(=O)c1cnccn1)B(O)O [Bortezomib] (partner 0.002 µM)
How it was run: as §1

[3] = compound: OCc1c[nH]c2ccccc12 [Indole-3-carbinol] + COc1cc2c(Oc3ccc(NC(=O)C4(C(=O)Nc5ccc(F)cc5)CC4)cc3F)ccnc2cc1OCCCN1CCOCC1 [Foretinib] (partner 0.25 µM)
How it was run: as §1

[4] = compound: OCc1c[nH]c2ccccc12 [Indole-3-carbinol] + Nc1nc2[nH]cc(CCc3ccc(C(=O)N[C@@H](CCC(=O)O)C(=O)O)cc3)c2c(=O)[nH]1 [Pemetrexed] (partner 0.2 µM)
How it was run: as §1

[5] = compound: OCc1c[nH]c2ccccc12 [Indole-3-carbinol] + Nc1ncn([C@H]2C[C@H](O)[C@@H](CO)O2)c(=O)n1 [Decitabine] (partner 2 µM)
How it was run: as §1

| Cell Line | relative viability ([1]; first compound 0.253 µM) | relative viability ([1]; first compound 0.8 µM) | relative viability ([1]; first compound 2.53 µM) | relative viability ([1]; first compound 8 µM) | relative viability ([2]; first compound 0.253 µM) | relative viability ([2]; first compound 0.8 µM) | relative viability ([2]; first compound 2.53 µM) | relative viability ([2]; first compound 8 µM) | relative viability ([3]; first compound 0.253 µM) | relative viability ([3]; first compound 0.8 µM) | relative viability ([3]; first compound 2.53 µM) | relative viability ([3]; first compound 8 µM) | relative viability ([4]; first compound 0.253 µM) | relative viability ([4]; first compound 0.8 µM) | relative viability ([4]; first compound 2.53 µM) | relative viability ([4]; first compound 8 µM) | relative viability ([5]; first compound 0.253 µM) | relative viability ([5]; first compound 0.8 µM) | relative viability ([5]; first compound 2.53 µM) | relative viability ([5]; first compound 8 µM) |
| --- | --- | --- | --- | --- | --- | --- | --- | --- | --- | --- | --- | --- | --- | --- | --- | --- | --- | --- | --- | --- |
| LCLC-97TM1 | 0.237 | 0.266 | 0.225 | 0.236 | 0.651 | 0.686 | 0.778 | 0.447 | 0.982 | 0.973 | 1.03 | 0.983 | 0.167 | 0.197 | 0.185 | 0.154 | 0.259 | 0.249 | 0.199 | 0.223 |
| LCLC-103H | 0.492 | 0.48 | 0.451 | 0.405 | 1.06 | 1.14 | 1.2 | 0.958 | 0.691 | 0.783 | 0.669 | 0.639 | 0.444 | 0.493 | 0.462 | 0.468 | 0.789 | 0.675 | 0.668 | 0.623 |
| LOU-NH91 | 0.492 | 0.547 | 0.535 | 0.497 | 0.497 | 0.459 | 0.566 | 0.522 | 0.927 | 0.964 | 0.963 | 0.924 | 0.432 | 0.404 | 0.401 | 0.396 | 0.827 | 0.781 | 0.818 | 0.831 |
| LU99A | 0.397 | 0.423 | 0.385 | 0.381 | 1.31 | 1.11 | 1.06 | 1.02 | 0.828 | 0.87 | 0.769 | 0.777 | 0.169 | 0.163 | 0.187 | 0.175 | 0.833 | 0.862 | 0.944 | 0.938 |
| LXF-289 | 0.58 | 0.611 | 0.609 | 0.56 | 1.03 | 1.1 | 0.944 | 0.893 | 0.973 | 0.978 | 0.968 | 0.945 | 0.944 | 1.02 | 0.934 | 0.851 | 0.383 | 0.324 | 0.362 | 0.369 |
| NCI-H23 | 0.435 | 0.463 | 0.546 | 0.419 | 0.898 | 1.16 | 0.846 | 0.975 | 1.03 | 1.01 | 1.04 | 1.02 | 0.738 | 0.773 | 0.844 | 0.788 | 0.335 | 0.314 | 0.316 | 0.291 |
| NCI-H322M | 0.456 | 0.481 | 0.506 | 0.476 | 1.18 | 1.25 | 1.3 | 1.07 | 0.827 | 0.998 | 0.876 | 0.829 | 0.562 | 0.685 | 0.546 | 0.636 | 0.725 | 0.659 | 0.722 | 0.675 |
| NCI-H441 | 0.202 | 0.267 | 0.249 | 0.185 | 0.367 | 0.938 | 0.381 | 0.375 | 0.784 | 1.1 | 0.952 | 1.05 | 0.235 | 0.283 | 0.254 | 0.245 | 0.241 | 0.245 | 0.283 | 0.234 |
| NCI-H460 | 0.149 | 0.17 | 0.229 | 0.19 | 1.14 | 1.14 | 1.11 | 1.03 | 1.03 | 1.02 | 1.02 | 0.992 | 0.0608 | 0.0603 | 0.063 | 0.0679 | 0.564 | 0.44 | 0.518 | 0.473 |
| NCI-H520 | 0.225 | 0.183 | 0.21 | 0.217 | 0.543 | 0.613 | 0.498 | 0.563 | 0.863 | 0.774 | 0.705 | 0.62 | 0.671 | 0.687 | 0.69 | 0.757 | 0.526 | 0.541 | 0.505 | 0.541 |
| NCI-H647 | 0.392 | 0.318 | 0.292 | 0.433 | 1.15 | 0.718 | 1.04 | 0.883 | 1.22 |  | 1.22 | 1.01 | 0.18 | 0.202 | 0.159 | 0.181 | 0.417 | 0.438 | 0.455 | 0.354 |
| NCI-H650 | 0.311 | 0.338 | 0.352 | 0.307 | 0.955 | 0.748 | 0.83 | 0.746 | 1.05 | 1.02 | 1.04 | 0.953 | 0.959 | 0.851 | 0.937 | 1.04 | 0.354 | 0.323 | 0.344 | 0.338 |
| NCI-H661 | 0.426 | 0.412 | 0.447 | 0.444 | 0.94 | 0.602 | 0.748 | 0.746 | 1.02 | 1.04 | 1.03 | 1.01 | 0.898 | 0.891 | 0.945 | 0.891 | 0.551 | 0.547 | 0.563 | 0.547 |
| NCI-H838 | 0.191 | 0.203 | 0.231 | 0.223 | 0.842 | 0.789 | 0.856 | 0.913 | 0.997 | 0.985 | 1.01 | 1.02 | 0.236 | 0.256 | 0.265 | 0.254 | 0.486 | 0.498 | 0.518 | 0.434 |
| NCI-H1355 | 0.401 | 0.379 | 0.43 | 0.392 | 1.25 | 1.18 | 1.2 | 1.17 | 0.961 | 1.01 | 0.998 | 0.978 | 1.08 | 1.08 | 0.983 | 1.06 | 0.342 | 0.359 | 0.379 | 0.371 |
| NCI-H1437 | 0.296 | 0.346 | 0.296 | 0.305 | 0.503 | 0.532 | 0.498 | 0.466 | 1.29 | 1.34 | 1.24 | 1.2 | 0.311 | 0.337 | 0.312 | 0.318 | 0.591 | 0.599 | 0.599 | 0.591 |
| NCI-H1650 | 0.376 | 0.341 | 0.338 | 0.351 | 0.19 | 0.192 | 0.207 | 0.194 | 0.987 |  | 1.08 | 1.3 | 0.377 | 0.328 | 0.47 | 0.449 | 0.412 | 0.352 | 0.493 | 0.34 |
| NCI-H1651 | 0.53 | 0.521 | 0.524 | 0.495 | 0.917 | 0.938 | 0.98 | 0.874 | 0.828 | 0.853 | 0.857 | 0.737 | 0.576 | 0.539 | 0.686 | 0.605 | 0.653 | 0.566 | 0.596 | 0.622 |
| NCI-H1666 | 0.667 | 0.694 | 0.667 | 0.626 | 0.892 | 0.873 | 0.865 | 0.786 | 0.932 | 1 | 1.01 | 0.94 | 0.882 | 0.852 | 0.878 | 0.826 | 0.809 | 0.673 | 0.696 | 0.661 |
| NCI-H1734 | 0.352 | 0.376 | 0.331 | 0.31 | 0.974 | 1.11 | 0.966 | 0.893 | 0.91 | 0.802 | 0.887 | 0.674 | 0.413 | 0.417 | 0.454 | 0.418 | 0.51 | 0.456 | 0.477 | 0.46 |
| NCI-H1755 | 0.489 | 0.444 | 0.487 | 0.423 | 1.02 | 0.939 | 0.976 | 0.995 | 0.982 | 0.953 | 0.895 | 0.895 | 0.422 | 0.436 | 0.435 | 0.386 | 0.737 | 0.686 | 0.725 | 0.638 |
| NCI-H1915 | 0.5 | 0.521 | 0.532 | 0.486 | 0.968 | 0.881 | 0.973 | 0.977 | 1.03 | 1.08 | 1.06 | 1.01 | 0.466 | 0.527 | 0.513 | 0.511 | 0.255 | 0.246 | 0.275 | 0.27 |
| NCI-H1975 | 0.699 | 0.704 | 0.554 | 0.644 | 0.409 | 0.328 | 0.436 | 0.365 | 0.888 | 0.977 | 1.01 | 0.873 | 0.288 | 0.294 | 0.293 | 0.311 | 0.392 | 0.38 | 0.415 | 0.436 |
| NCI-H1993 | 0.713 | 0.635 | 0.664 | 0.521 | 1.09 | 1.38 | 1.14 | 1.17 | 0.716 | 0.899 | 0.763 | 0.846 | 0.59 | 0.69 | 0.548 | 0.567 | 0.641 | 0.657 | 0.573 | 0.623 |
| NCI-H2009 | 0.213 | 0.188 | 0.169 | 0.226 | 1.14 | 1.09 | 0.998 | 0.933 | 1.18 | 1.13 | 1.21 | 1.17 | 1.03 | 1.07 | 1.07 | 1.06 | 0.406 | 0.346 | 0.376 | 0.381 |
| NCI-H2023 | 0.396 | 0.469 | 0.334 | 0.375 | 0.903 | 1.02 | 0.887 | 0.939 | 0.978 | 0.971 | 0.822 | 0.916 | 0.245 | 0.269 | 0.252 | 0.258 | 0.213 | 0.213 | 0.212 | 0.198 |
